How the values were obtained:
[1] = test system: gastric cancer KATO III cells; test: Cell viability (Cell-Titer GLO), 4 days, gastric cancer cells; type: cell-based, human
Method: Experiments were independently performed three times.
(§1) For cell viability, cells were seeded in 96-well plates at 1500-2500 cells per well (optimum density for growth, depending on the specific cell line) in a total volume of 100 μl media. Serially diluted compounds in 100 μl of media were added to the cells 12 hours later. After 4 days of incubation, Cell-Titer GLO reagents (Promega) were added and luminescence was measured on GLOMAX microplate luminometer (Promega), according to the manufacturer's instructions. All experimental points were set up as sextuplicate as biological replication and the entire experiments were repeated three times. The data are presented as percentage of viable cells with vehicle treated cells set as 100.

[2] = test system: MDA-MB468 cells; test: Cell viability (CellTiter-GLO), 4 days, TNBC cells; type: cell-based, human
Method: (§2) The “No.” label for each compound corresponds to the “Structure No.” in Table 2 (e.g., “No. 36”=“Structure No. 36” in Table 2). The cell viability curves were measured by CellTiter-GLO.
as §1, with “growth)” for “growth, depending on the specific cell line)”, “100. The estimated in vitro IC50 values were calculated using GraphPad Prism 6 software.” for “100.”

[3] = test system: HCC70 cells; test: Cell viability (CellTiter-GLO), 4 days, TNBC cells; type: cell-based, human
Method: as §2
as §1, with “growth)” for “growth, depending on the specific cell line)”, “100. The estimated in vitro IC50 values were calculated using GraphPad Prism 6 software.” for “100.”

[4] = test system: prostate cancer C4-2B cells; test: Cell viability (Cell-Titer GLO), 4 days, prostate cancer cells; type: cell-based, human
Method: The “No.” label for each compound corresponds to the “Structure No.” in Table 2 (e.g., “No. 36”=“Structure No. 36” in Table 2). Experiments were independently performed three times.
as §1, with “100. The estimated in vitro IC50 values were calculated using GraphPad Prism 6 software.” for “100.”

[5] = test system: MCF-7-TamR; test: Growth and survival of tamoxifen-resistant breast cancer cells; type: cell-based, human; settings: MCF-7-TamR, 1 μM of 4(OH)-tamoxifen alone
[6] = test system: SUM159 orthotopic xenograft tumors; test: TNBC SUM159 orthotopic xenograft tumor growth in SCID mice; type: in vivo, mouse; settings: 5 mg/kg, i.p., 5 times per week, 45 days
Method: Orthotopic xenograft tumor models and chemical compound treatments: Four-week-old female SCID C.B17 mice (for TNBC SUM159 cell lines) were purchased from Harlan Inc. For establishing tumors, 2×10^6 cells were suspended in total of 100 μL PBS/Matrigel (1:1) and implanted orthotopically into the 4th inguinal mammary fat pads at both sides. Animal group size of six or more was estimated to have a high statistical power, based on power calculation (www.biomath.info/pgwer/) and 20 previous studies involving the same xenograft models. When the tumor volume was approximately 50 mm^3, the mice were randomized and then treated intraperitoneally (i.p.) with 100 μl of vehicle or RORγ inhibitors F18/No. 37, 5 mg/kg; GSK805, 5 mg/kg; GNE3500, 5 mg/kg. (in a formulation of 15% Cremophor EL, Calbiochem, 82.5% PBS, and 2.5% DMSO) for five times per week. Tumor growth was monitored by calipers with volume calculated using the equation: π/6 (length×width^2). Mouse body weight during the course of the study was also monitored. At the end of the studies, mice were killed and tumors were dissected and weighed.

SMILES	inhibition of growth and survival [1]	inhibition of growth and survival [2]	inhibition of growth and survival [3]	inhibition of growth and survival [4]	growth inhibitory effect, tamoxifen alone [5]	orthotopic tumor growth inhibition [6]
OC(c1ccc(-c2ccc(CN3CCN(Cc4ccncc4)CC3)cc2)c(F)c1)(C(F)(F)F)C(F)(F)F [SR2211]	strongly inhibited the growth and survival	–	–	–	–	–
O=C(CCCC1CCCCC1)Nc1ccc(-c2ccc(C(O)(C(F)(F)F)C(F)(F)F)cc2F)cc1 [F65, 4-cyclohexyl-N-(2′-fluoro-4′-(1,1,1,3,3,3-hexafluoro-2-hydroxypropan-2-yl)-[1,1′-biphenyl]-4-yl)butanamide]	–	strongly inhibited the growth and survival	strongly inhibited the growth and survival	strongly inhibited the growth and survival	–	–
CC(=O)N1CCN(c2ccc(CN3[C@@H](C)CC[C@H](c4ccccc4)S3(=O)=O)c(F)c2)CC1 [GNE3500]	strongly inhibited the growth and survival	–	–	–	–	–
CC/C(=C(\c1ccccc1)c1ccc(OCCN(C)C)cc1)c1ccccc1 [tamoxifen, reference compound]	–	–	–	–	did not show any inhibitory effect	–
COC(=O)CCCC(=O)Nc1ccc(-c2ccc(C(O)(C(F)(F)F)C(F)(F)F)cc2F)cc1 [F68, Methyl-5-((2′-fluoro-4′-(1,1,1,3,3,3-hexafluoro-2-hydroxypropan-2-yl)-[1,1′-biphenyl]-4-yl)amino)-5-oxopentanoate]	–	strongly inhibited the growth and survival	strongly inhibited the growth and survival	strongly inhibited the growth and survival	–	–
O=C(CCc1ccccc1)Nc1ccc(-c2ccc(C(O)(C(F)(F)F)C(F)(F)F)cc2F)cc1 [F62, N-(2′-fluoro-4′-(1,1,1,3,3,3-hexafluoro-2-hydroxypropan-2-yl)-[1,1′-biphenyl]-4-yl)-3-phenylpropanamide]	–	strongly inhibited the growth and survival	strongly inhibited the growth and survival	strongly inhibited the growth and survival	–	–
CCCCCCC(=O)Nc1ccc(-c2ccc(C(O)(C(F)(F)F)C(F)(F)F)cc2F)cc1 [F64, N-(2′-fluoro-4′-(1,1,1,3,3,3-hexafluoro-2-hydroxypropan-2-yl)-[1,1′-biphenyl]-4-yl)heptanamide]	–	strongly inhibited the growth and survival	strongly inhibited the growth and survival	strongly inhibited the growth and survival	–	–
O=C(CCC(F)(F)F)Nc1ccc(-c2ccc(C(O)(C(F)(F)F)C(F)(F)F)cc2F)cc1 [F63, 4,4,4-trifluoro-N-(2′-fluoro-4′-(1,1,1,3,3,3-hexafluoro-2-hydroxypropan-2-yl)-[1,1′-biphenyl]-4-yl)butanamide]	–	strongly inhibited the growth and survival	strongly inhibited the growth and survival	strongly inhibited the growth and survival	–	–
O=C(Cc1ccc([N+](=O)[O-])cc1)Nc1ccc(-c2ccc(C(O)(C(F)(F)F)C(F)(F)F)cc2F)cc1 [F17, N-(2′-fluoro-4′-(1,1,1,3,3,3-hexafluoro-2-hydroxypropan-2-yl)-[1,1′-biphenyl]-4-yl)-2-(4-nitrophenyl)acetamide]	–	strongly inhibited the growth and survival	strongly inhibited the growth and survival	strongly inhibited the growth and survival	–	–
CCS(=O)(=O)c1ccc(CC(=O)Nc2cc(Cl)c(-c3ccccc3OC(F)(F)F)c(Cl)c2)cc1 [GSK805, reference compound]	strongly inhibited the growth and survival	–	–	–	–	Strong tumor growth inhibition

From patent US20210161837A1, “METHODS FOR TREATING CANCER WITH RORGAMMA INHIBITORS” (The Regents of the University of California, priority 2016, published 2021)
